# Reference: patent US11246899B2, “Urtica dioica extracts and methods of isolating urtica dioica extracts” (SynHiTech Inc., priority 2018, dated 2022)
# System: Type 2 diabetic patients
# Experiment: Clinical study in Type 2 diabetic patients, blood glucose by glucometer and side effects
# Type: in vivo, human
# Description: The effect of the Urdi-1 extract was tested on six Type 2 diabetic patients. The consents were filled by patients and were reviewed by the ethical committee of Tehran Hospital. The UD1-extract (20 mg of Urdi-1) was taken orally as one or two dosages per day. Blood glucose was measured by glucometer as fasted or after dining. After getting the promising data at the animal level, we tested the efficacy of Urdi-1 in Type 2 diabetic patients. Six patients (Patient I to VI) with high level of blood glucose consented to participate in the study (Table 2). These patients were selected different sex (male and female) with varying age ranging from mid forty to late sixty. As the level of the referral blood glucose and the medication administrated by their physicians were different data of each patient is presented individually.
# [1] = Patient I, after insulin two weeks then Glibenclamide and metformin for one month
# [2] = Patient IV, after insulin 17 days then Glibenclamide and metformin for two weeks
substance,measurement,setting,value
Glibenclamide and metformin,fasting blood glucose,[1],about 175 mg/dL
same,night blood glucose,[1],~225 mg/dL
same,fasting blood glucose,[2],about 90 mg/dL
same,night blood glucose,[2],~220 mg/dL
